From patent publication US9687479B2, “Multisubstituted aromatic compounds as serine protease inhibitors” (VERSEON CORPORATION, priority 2013, dated 2017) come the findings set out here.

Data set [1] concerns the target Human KLKB1 (Homo sapiens (Human), UniProt P03952). The data set is described as follows: KLKB1 kallikrein activity inhibition assay (chromogenic substrate S-2302). The data set is classed as biochemical. Conditions: Table B. In outline:
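Enzyme at a final 3 nM was assayed in 0.05 M Tris pH 7.4, 0.01 M NaCl and 0.2% PEG-8000 at room temperature, with compounds as ten-point threefold dilutions.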

The nature of data set [2]: Pharmacokinetics in mice (i.v. and p.o.). Type of data set: in vivo, male CD-1 mice. Conditions: male, CD-1, mouse, in vivo. How it is done:
Each compound is administered intravenously (i.v.) as a single dose via tail vein or orally (p.o.) as a single dose via gastric gavage to male CD-1 mice of nominal weights between 20 g and 26 g. Nominal doses are 1 mg/kg and 5 mg/kg for i.v. and p.o., respectively. In some examples (dose type A), both p.o. and i.v. doses are prepared by dissolving the test compound in 5% dimethyl acetamide and diluted in tetraethylene glycol for a final concentration of 0.25 mg/mL. In other examples (dose type B), i.v. doses are prepared by dissolving test compounds in 20% dimethyl acetamide, 40% polyethylene glycol 300 and 40% phosphate buffered saline, and p.o. doses are prepared by dissolving test compounds in carboxymethyl cellulose suspension (1% by weight) in water and 2.5% dimethyl acetamide.
Animals are housed in standard holding cages with food and water available ad libitum except for animals used for p.o. dosing which are fasted overnight prior to dosing. Samples are taken in triplicate via cardiac puncture at times prior to dosing and at 0.083 (i.v. only), 0.25, 0.5, 1, 2, 4, 8, and 24 hours after administration. Plasma is obtained by centrifuge and stored frozen until analyzed by LC-MS/MS using a Shimadzu VP System HPLC coupled to a Applied Biosystems MDS SCIEX API 3000 triple quadrapole MS. Assay results are calibrated using reference samples prepared in a range between 1.5 and 5000 ng/mL.
Pharmacokinetic parameters are calculated from mean concentration values using a non-compartmental analysis as described in the following and as apparent to those of ordinary skill in the art. Half-lives (t1/2) and elimination rate constants (λ) are determined by log linear regression using equal weighting on the last three finite sample time points. Concentration at time zero (C0) for the i.v. data is established by the extrapolation of log linear regression using equal weighting on the first three sample time points. Area under the curve (AUC) values are calculated using linear trapezoidal integration. Systemic clearance (CL) is calculated as the ratio of dosage and AUC. […] Percent oral bioavailability (% F) is determined from the ratio of i.v. and p.o. AUC values weighted by dosage.

Data set [3] deals with Recombinant human tissue kallikrein (KLK1) (Homo sapiens (Human), UniProt P06870). Kind of data set: KLK1 kallikrein activity inhibition assay (Pro-Phe-Arg-AMC substrate). Type of data set: biochemical. Conditions: Table B. How it is done:
The KLK1 kallikrein activity reported herein (e.g., Tables B and C) was obtained as follows. Recombinant human tissue kallikrein (KLK1) was obtained from R&D Systems. […] KLK1 enzyme is activated by incubating 0.5 mg/ml KLK1 combined with 0.1 μg/ml thermolysin in a buffer of 0.05 M Tres (pH 7.5), 0.15 M NaCl, and 0.01 M CaCl2 for one hour at 37° C. The thermolysin is then deactivated by the addition of equal parts 20 mM 1, 10 phenanthroline solution in water. The activated KLK1 solution is then added to CHES buffer (0.05 M CHES, 0.15 M NaCl, 0.01 M CaCl2, pH 10) for a final concentration of 5 nM along with the test article and incubated for 10 minutes. […] Substrate activation is read 10 minutes after substrate addition using a Synergy H1 multifunction plate reader (Biotek) programmed with a 360 nm excitation wavelength and a 480 nm emission wavelength. Inhibitor response was established by adding test compound as ten point, three-fold serial dilutions, as known in the art. The IC50 was calculated by plotting the percent (%) inhibition against compound concentration and fitting the data to a constrained four parameter sigmoidal curve, as known in the art.

In data set [4] the target is Human thrombin (Homo sapiens (Human), UniProt P00734). The data set is described as follows: Thrombin protease activity inhibition assay (chromogenic substrate S-2238). Conditions: 3 nM thrombin, 125 μM S-2238, 10 min pre-incubation, RT. The data set is classed as biochemical. In outline:
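Thrombin at 3 nM final in 0.05 M Tris pH 7.4, 0.015 M NaCl, 0.01% PEG-8000, at room temperature; compounds as ten-point three-fold dilutions.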

The structures appear in SMILES notation. pIC50: −log10 of the molar value. A value given as a limit tells only on which side of the number the result lay.

Sequence of Recombinant human tissue kallikrein (KLK1) (P06870 25-262): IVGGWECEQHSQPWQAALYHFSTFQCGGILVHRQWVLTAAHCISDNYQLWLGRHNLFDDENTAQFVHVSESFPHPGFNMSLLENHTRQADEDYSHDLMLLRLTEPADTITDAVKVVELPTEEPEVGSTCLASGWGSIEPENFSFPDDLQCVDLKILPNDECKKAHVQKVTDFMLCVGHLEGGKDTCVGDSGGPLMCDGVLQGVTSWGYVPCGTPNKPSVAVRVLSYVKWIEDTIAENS
Sequence of Human KLKB1 (P03952 391-638 limits assumed): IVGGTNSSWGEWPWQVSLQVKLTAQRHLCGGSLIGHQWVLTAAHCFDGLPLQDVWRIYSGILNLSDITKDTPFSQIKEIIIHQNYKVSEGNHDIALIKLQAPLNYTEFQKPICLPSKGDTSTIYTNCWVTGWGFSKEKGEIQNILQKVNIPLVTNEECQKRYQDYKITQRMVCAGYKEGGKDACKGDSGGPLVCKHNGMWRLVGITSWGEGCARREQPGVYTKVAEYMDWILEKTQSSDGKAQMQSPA
Sequence of Human KLKB1 (P03952 20-390 partner limits assumed): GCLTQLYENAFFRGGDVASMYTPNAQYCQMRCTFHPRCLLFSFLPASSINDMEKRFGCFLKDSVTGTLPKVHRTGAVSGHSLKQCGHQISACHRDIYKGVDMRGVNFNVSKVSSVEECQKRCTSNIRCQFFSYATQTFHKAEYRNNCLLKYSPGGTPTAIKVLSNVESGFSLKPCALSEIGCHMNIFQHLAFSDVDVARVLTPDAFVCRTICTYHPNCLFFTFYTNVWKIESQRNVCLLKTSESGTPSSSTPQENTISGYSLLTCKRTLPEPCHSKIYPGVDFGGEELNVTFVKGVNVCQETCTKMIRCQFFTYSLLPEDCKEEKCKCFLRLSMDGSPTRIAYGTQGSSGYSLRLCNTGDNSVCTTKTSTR

In general, pIC50 refers to −log10 of the IC50, conventionally taken in molar units. What is called AUC is the area under the concentration-time curve, a measure of exposure. Higher therefore signals high exposure. The half-life is the time in which the quantity being followed falls by half. What is called bioavailability is the share of a dose that reaches the circulation, judged against a reference dose that is usually intravenous. Higher therefore signals good availability. For the molecule `Cn1cccc(-c2cc(NCc3ccc(Cl)s3)n(C(=O)c3ccoc3)n2)c1=O` [Cmpd 23, 3-(5-[(5-chlorothiophen-2-yl)methyl]amino-1-[(furan-3-yl)carbonyl]-1H-pyrazol-3-yl)-1-methyl-1,2-dihydropyridin-2-one], the pIC50 in data set [1] was 5.00 to 6.00. In data set [2] (iv, 1 mg/kg), this molecule had an AUC of 100 ng·h/mL, a C0 of 400 ng/mL, a Vd of 5 L/kg and a clearance of 133 mL/min/kg. In data set [2] (iv, 1 mg/kg), this molecule gave a half-life of 30 min. Besides, in data set [2] (po, 5 mg/kg), the area under the curve (AUC) is 80 ng·h/mL, the bioavailability is 10% and the half-life was 36 min. For the same molecule, the pIC50 in data set [3] is 4.00 to 5.00. This molecule had a pIC50 in data set [4] of more than 7.00.
`O=C(c1ccoc1)n1nc(-c2cccn(Cc3ccccn3)c2=O)cc1NCc1ccc(Cl)s1` [Cmpd 25, 3-(5-[(5-chlorothiophen-2-yl)methyl]amino-1-[(furan-3-yl)carbonyl]-1H-pyrazol-3-yl)-1-(pyridin-2-ylmethyl)-1,2-dihydropyridin-2-one] had a negative logarithm of the IC50 (pIC50) in data set [1] of 6.00 to 7.00. For the same molecule, in data set [2] (iv, 1 mg/kg), the area under the curve (AUC) was 40 ng·h/mL, the C0 was determined as 100 ng/mL, the Vd is 6 L/kg and the clearance is 167 mL/min/kg. The molecule further showed a half-life in data set [2] (iv, 1 mg/kg) of 18 min. In data set [2] (po, 5 mg/kg), this molecule displayed an exposure (AUC) of 10 ng·h/mL, a bioavailability of 9% and a half-life of more than 18 min. Also, in data set [3], the pIC50 is 4.00 to 5.00. For the same molecule, in data set [4], the pIC50 is more than 7.00.
In data set [1], `O=C(c1ccoc1)n1nc(-c2cccn(Cc3ccco3)c2=O)cc1NCc1ccc(Cl)s1` [Cmpd 26, 3-(5-[(5-chlorothiophen-2-yl)methyl]amino-1-[(furan-3-yl)carbonyl]-1H-pyrazol-3-yl)-1-(furan-2-ylmethyl)-1,2-dihydropyridin-2-one] had a negative logarithm of the IC50 (pIC50) of 5.00 to 6.00. Further, in data set [2] (iv, 1 mg/kg), the AUC is 50 ng·h/mL, the C0 amounted to 200 ng/mL, the Vd was 5 L/kg and the clearance was 167 mL/min/kg. In data set [2] (iv, 1 mg/kg), this molecule had a half-life of 18 min. Also, in data set [2] (po, 5 mg/kg), the exposure (AUC) amounted to 20 ng·h/mL, the bioavailability came to 8% and the half-life is more than 18 min. Moreover, the negative logarithm of the IC50 (pIC50) in data set [3] was 4.00 to 5.00. This molecule showed a pIC50 in data set [4] of more than 7.00.
Take `O=C(O)Cn1cccc(-c2cc(NCc3ccc(Cl)s3)[nH]n2)c1=O` [Cmpd 59, 2-[3-(5-[(5-chlorothiophen-2-yl)methyl]amino-1H-pyrazol-3-yl)-2-oxo-1,2-dihydropyridin-1-yl]acetic acid]: the negative logarithm of the IC50 (pIC50) was 5.00 to 6.00 in data set [1], less than 4.00 in data set [3] and 4.00 to 5.00 in data set [4].
The corresponding values for `CC(C)(C)C(=O)n1nc(-c2cccn(Cc3cccnn3)c2=O)cc1NCc1ccc(Cl)s1` [Cmpd 81, 3-(5-[(5-chlorothiophen-2-yl)methyl]amino-1-(2,2-dimethylpropanoyl)-1H-pyrazol-3-yl)-1-(pyridazin-3-ylmethyl)-1,2-dihydropyridin-2-one] are 5.00 to 6.00, less than 4.00 and more than 7.00.
In the case of `O=C(c1cccc2c1OCCO2)n1nc(-c2cccn(Cc3ccccn3)c2=O)cc1NCc1ccc(Cl)s1` [Cmpd 113, 3-(5-[(5-chlorothiophen-2-yl)methyl]amino-1-[(2,3-dihydro-1,4-benzodioxin-5-yl)carbonyl]-1H-pyrazol-3-yl)-1-(pyridin-2-ylmethyl)-1,2-dihydropyridin-2-one], the negative-log IC50 (pIC50) in data set [1] is 6.00 to 7.00; in data set [3], 4.00 to 5.00; in data set [4], more than 7.00.
The corresponding values for `COc1ccc(C(=O)n2nc(-c3cccn(Cc4cccnc4)c3=O)cc2NCc2ccc(Cl)s2)c(OC)c1` [Cmpd 126, 3-(5-[(5-chlorothiophen-2-yl)methyl]amino-1-[(2,4-dimethoxyphenyl)carbonyl]-1H-pyrazol-3-yl)-1-(pyridin-3-ylmethyl)-1,2-dihydropyridin-2-one] are 5.00 to 6.00, less than 4.00 and more than 7.00.
Consider `COc1ccccc1C(=O)n1nc(-c2ccc[nH]c2=O)cc1NCc1ccc(Cl)s1` [Cmpd 132, 3-(5-[(5-chlorothiophen-2-yl)methyl]amino-1-[(2-methoxyphenyl)carbonyl]-1H-pyrazol-3-yl)-1,2-dihydropyridin-2-one], for which the pIC50 in data set [1] is 5.00 to 6.00; in data set [3], less than 4.00; in data set [4], more than 7.00.
For `COc1ccccc1C(=O)n1nc(-c2cccn(Cc3cccnn3)c2=O)cc1NCc1ccc(Cl)s1` [Cmpd 138, 3-(5-[(5-chlorothiophen-2-yl)methyl]amino-1-[(2-methoxyphenyl)carbonyl]-1H-pyrazol-3-yl)-1-(pyridazin-3-ylmethyl)-1,2-dihydropyridin-2-one] the same measures were 6.00 to 7.00, less than 4.00 and more than 7.00.
Turning to `COc1ccccc1C(=O)n1nc(-c2cccn(CC(=O)N3CCOCC3)c2=O)cc1NCc1ccc(Cl)s1` [Cmpd 145, 3-(5-[(5-chlorothiophen-2-yl)methyl]amino-1-[(2-methoxyphenyl)carbonyl]-1H-pyrazol-3-yl)-1-[2-(morpholin-4-yl)-2-oxoethyl]-1,2-dihydropyridin-2-one], the pIC50 in data set [1] is 5.00 to 6.00; in data set [3] it was less than 4.00; in data set [4], more than 7.00.
For the molecule `COCCn1cccc(-c2cc(NCc3ccc(Cl)s3)n(C(=O)C3(C)CCOCC3)n2)c1=O` [Cmpd 149, 3-(5-[(5-chlorothiophen-2-yl)methyl]amino-1-[(4-methyloxan-4-yl)carbonyl]-1H-pyrazol-3-yl)-1-(2-methoxyethyl)-1,2-dihydropyridin-2-one], the negative-log IC50 (pIC50) in data set [1] is 5.00 to 6.00; in data set [3], less than 4.00; in data set [4] it was less than 4.00.
Consider `O=C(c1ccc(N2CCOCC2)cc1)n1nc(-c2cccn(Cc3cccnc3)c2=O)cc1NCc1ccc(Cl)s1` [Cmpd 213, 3-(5-[(5-chlorothiophen-2-yl)methyl]amino-1-[4-(morpholin-4-yl)phenyl]carbonyl-1H-pyrazol-3-yl)-1-(pyridin-3-ylmethyl)-1,2-dihydropyridin-2-one], for which the pIC50 was 6.00 to 7.00 in data set [1], less than 4.00 in data set [3] and more than 7.00 in data set [4].
On to `COCCn1cccc(-c2cc(NCc3ccc(Cl)s3)n(C(=O)c3ccccc3Cl)n2)c1=O` [Cmpd 242, 3-1-[(2-chlorophenyl)carbonyl]-5-[(5-chlorothiophen-2-yl)methyl]amino-1H-pyrazol-3-yl-1-(2-methoxyethyl)-1,2-dihydropyridin-2-one], for which the pIC50 in data set [1] was 6.00 to 7.00; in data set [3], less than 4.00; in data set [4], more than 7.00.
The corresponding values for `O=C(c1ccccc1Cl)n1nc(-c2cccn(Cc3cccnc3)c2=O)cc1NCc1ccc(Cl)s1` [Cmpd 247, 3-1-[(2-chlorophenyl)carbonyl]-5-[(5-chlorothiophen-2-yl)methyl]amino-1H-pyrazol-3-yl-1-(pyridin-3-ylmethyl)-1,2-dihydropyridin-2-one] are more than 7.00, less than 4.00 and more than 7.00.
The corresponding values for `O=C(c1ccccc1Cl)n1nc(-c2cccn(Cc3ccncc3)c2=O)cc1NCc1ccc(Cl)s1` [Cmpd 248, 3-1-[(2-chlorophenyl)carbonyl]-5-[(5-chlorothiophen-2-yl)methyl]amino-1H-pyrazol-3-yl-1-(pyridin-4-ylmethyl)-1,2-dihydropyridin-2-one] are 6.00 to 7.00, less than 4.00 and more than 7.00.
